3 compounds from the NIST ThermoML archive (doi:10.1016/j.jct.2018.09.002) can be followed below.

The conditions of data set [1]: Liquid; for vapor or sublimation pressure: Ebulliometric method (Recirculating still); for Normal boiling temperature: Distillation.
A short description of data set [2]: refractive index (Na D-line) (dimensionless). The following applies: 101.33 kPa, Liquid, Standard Abbe refractometry.

SMILES strings stand for the structures. Numbers after ± are expanded uncertainties.

By vapor or sublimation pressure is commonly meant the equilibrium pressure above the liquid or solid. On to `Cc1cccc(O)c1` [3-methylphenol], for which the “vapor or sublimation pressure” value in data set [1] (422.25 K) was 20 ± 1.5 kPa.
As a reminder, the refractive index is the speed of light in vacuum divided by its phase velocity in the sample. `Cc1ccc(O)cc1` [4-methylphenol]: the “vapor or sublimation pressure” value in data set [1] (421.95 K) is listed as 20 ± 1.5 kPa. The Normal boiling temperature in data set [1] came to 201.70 ± 2.2 °C. The refractive index was 1.5295 ± 0.0005 in data set [2] (303.15 K) and 1.5288 ± 0.0005 in data set [2] (308.15 K).
On to `OCCNCCO` [diethanolamine], for which the “vapor or sublimation pressure” value in data set [1] (489.08 K) is reported as 20 ± 1.5 kPa. In data set [1], the Normal boiling temperature turned out to be 269.31 ± 2.2 °C. Further, the refractive index in data set [2] (298.15 K) was determined as 1.4762 ± 0.0005; in data set [2] (303.15 K), 1.4751 ± 0.0005.
